Experimental findings from EP0121856A2, “Use of pyrazolone derivatives against the growth of tumour cells and their metastases, medicaments therefor and their preparation” (BAYER AG, priority 1983, dated 1984) are described below.

Assay [1] is described as follows: antithrombotic effect (thrombosis prophylaxis) compared with Nafazatrom. The format is in vivo. The note with it: for antithrombotischer Effekt: at 100-fold dose increase compared with Nafazatrom.
Assay [2] concerns B-16a Tumorzellen. Description: partial metastasis model: tail vein injection of B-16a tumour cells, oral pretreatment for three days (Beispiel 1). The format is in vivo, C57BL/6J-Mäuse. The conditions noted are these: 3 days before tail vein injection; for Metastasenpunkte: lungs 24 days after injection, score 1-10, mean ± S, n = 10; for Metastasenindex: treated group points / control group points. The method, then:
Es wurden dieselben Tumor-Zellinien wie in EP-A 0 062 319 verwendet und auf die gleiche Weise in vivo gehalten. ;
Tumorzellen wurden dann aseptisch aus den Wirtsmäusen entnommen und unter Anwendung sequenzieller Collagenase-Verdauung dispergiert, wie unten beschrieben. Die entnommenen Tumoren wurden in Würfel (4 x 4 mm) zerteilt, und das gewürfelte Gewebe wurde auf 6 bis 8 sterile Polycarbonat-Erlenmeyerkolben aufgeteilt (etwa 500 mg/Kolben). Ein Anteil von 10 ml einer "Tumordispersionslösung" (TDS) wurde in jeden Kolben hinzugefügt.
Das gewürfelte Gewebe in der TDS wurde dann unter Luft in einem Dubnoff-Stoffwechsel-Schüttler (90 Schwingungen/min) dispergiert (30 min; 37°C). Die überstände wurden durch ein Seihtuch in sterile 50 ml-Rundboden-Zentrifugenröhrchen auf Polycarbonat gesammelt und 10 min (25°C) mit 900 U/min(100 g) in einem Sorvall SS-34 -Rotor zentrifugiert. Nach dem Zentrifugieren wurde die überstehende Fraktion verworfen. Das erhaltene zelluläre Material (Pellets) wurde zweimal mit MEM-Lösung gewaschen, wieder in MEM suspendiert und bei 4°C gehalten.
Zu dem verbleibenden gewürfelten Gewebe wurde ein Anteil von 10 ml TDS hinzugefügt, und das Gewebe wurde in einem Stoffwechselschüttler inkubiert, wie oben beschrieben, außer daß die Zeitdauer 60 min betrug. Das Zentrifugieren wurde wiederholt, und die wieder suspendierten Zellen wurden vereinigt.
(§1) Wie bereits weiter oben festgestellt wurde, ist die Metastase eine einzelne Erscheinung, die durch eine Reihe komplizierter Vorgänge verursacht wird. Gegenwärtig finden zwei "Modell"-Systeme für die Untersuchung der in vivo-Metastase verbreitete Anwendung. Das erste Modellsystem umfaßt die subkutante Injektion der Tumorzellen in das Tier. Die subkutante Injektion der Tumorzellen und anschließende Entwicklung eines Primärtumors, gefolgt von spontaner Metastase, wird als "volle" Metastase betrachtet. Ein anderes Modellsystem umfaßt die Injektion der Tumorzellen durch die Schwanzvene. In Anbetracht der Komplexität der Metastase gilt die Schwanzvenen-Injektion nur als partielles Modellsystem, da es nur die Vorgänge während des letzten Teils der Metastase wiedergibt. Das Schwanzvenen-Modellsystem gilt jedoch andererseits als außerordentlich günstig im Hinblick auf eine Standardisierung der Versuchsbedindungen Lvgl. "Methods in Cancer Research", Kapitel VII, Academic Press, Inc., 19787.
5 mg des jeweiligen Pyrazolonderivats wurden in 0,5 % Tylose aufgenommen und dann durch Behandlung mit Ultraschall (30 sec) gelöst. Die endgültige Konzentration der Substanzen wurde durch Verdünnung der Lösungen mit 0,5 % Tylose eingestellt.
(§2) Syngeneische C57BL/6J-Mäuse wurden während eines Zeitraumes von drei Tagen mit 0,005 mg/kg bis 5 mg/kg der beiden Substanzen in 0,2 ml 0,5 % Tylose peroral behandelt. Kontrolltiere erhielten täglich 0,2 ml 0,5 % Tylose. Am vierten Tag wurde den vorbehandelten Mäusen und Kontrollmäusen ein Suspension von 5 x 10^4 B-16a Tumorzellen über die Schwanzvene injiziert. Die Kontrollmäuse und die behandelten Mäuse wurden unter identischen Bedingungen der Temperatur, Lichteinwirkungsdauer, Ernährung etc. gehalten. Die Mäuse wurden 24 Tage nach erfolgter Schwanzvenen-Injektion getötet, und ihre Lungengewebe wurden untersucht. Der Grad der Metastasierung wurde nach Zahl und Größe der makroskopisch sichtbaren Metastasen mit Punktzahlen von 1 - 10 bewertet, welche die Relation zwischen Metastasenbedeckter und - freier Organfläche ausdrücken. Dabei werden die Punktzahlen nach folgenden Rahmenkriterien vergeben: 1 = 1 - 2 gerade erkennbare Metastasen, 5 = etwa 50 % der Organoberfläche ist von Metastasen bedeckt, 10 = fast keine normale Organoberfläche sichtbar.

For the next assay, the system named is B-16a-Zellen. Description: full metastasis model: subcutaneous injection of B-16a cells, oral treatment for 27 days, metastatic lung nodules (Beispiel 4). The conditions noted are these: for Metastasenpunkte: lungs at 28 days; for Metastasenindex: treated / control points. The class given is in vivo, C57BL/6J-Mäuse.
Excerpt: as §1
Die Wirkung der Verabreichung der Pyrazolon-Verbindungen über einen längeren Zeitraum hinweg auf die Zahl der'metastatischen Lungen-Kolonien des B-16a Melanoms wurde wie nachstehend für Verbindung A beschrieben bestimmt.
10 mg Verbindung A wurden in 0,5 % Tylose aufgenommen und dann durch Behandlung mit Ultraschall (30 sec) gelöst. Die endgültige Konzentration der Substanz wurde durch Verdünnung der Lösung mit 0,5 % Tylose eingestellt. Die Substanz wurde jeden Tag neu gelöst.
Syngeneische C57BL/6J-Mäusen wurde eine Suspension von 1,0 x 10^5 B-16a-Zellen subkutan injiziert, die wie vorstehend beschrieben hergestellt wurde. Vom Tage nach der Tumorzell-Injektion ab erhielten die Mäuse 27 Tage peroral eine tägliche Einzeldosis von 0 bis 100 mg/kg der Pyrazolon-Verbindung. Die Kontroll-Mäuse und die behandelten Mäuse wurden unter identischen Bedingungen der Temperatur, Lichteinwirkungsdauer, Ernährung etc. gehalten. Die Mäuse wurden nach 28 Tagen getötet und die Zahl und Größe der metastatischen Knötchen in der Lunge bestimmt.

In assay [3] the test system is B-16a Tumorzellen. In words: partial metastasis model: tail vein injection of B-16a tumour cells, oral treatment 3 days before and 2 days after tumour injection (Beispiel 2 and 3). The class given is in vivo, C57BL/6J-Mäuse. The conditions noted are these: for Metastasenpunkte: score 1-10, mean ± S, n = 10; for Metastasenindex: treated / control points. As to the method:
as §2
5 mg des jeweiligen Pyrazolonderivats wurden in 0,5 % Ty-lose aufgenommen und dann durch Behandlung mit Ultraschall (30 sec) gelöst. Die endgültige Konzentration der Substanzen wurde durch Verdünnung der Lösungen mit 0,5 % Tylose eingestellt.
Syngeneische C57BL/6J-Mäuse wurden während eines Zeitraumes von drei Tagen vor der Tumorinjektion und 2 Tagen nach der Tumorinjektion täglich mit 0,005 mg/kg bis 5 mg/kg der beiden Substanzen in 0,2 ml 0,5 % Tylose peroral behandelt. Kontrolltiere erhielten 0,2 ml 0,5 % Tylose. Am vierten Tag wurde den. vorbehandelten Mäusen und Kontrollmäusen eine Suspension von 5 x 10^4 B-16a Tumorzellen über die Schwanzvene injiziert.
20 mg des jeweiligen Pyrazolonderivats wurden in 0,5 % Tylose aufgenommen und dann durch Behandlung mit Ultraschall (30 sec) gelöst. Die endgültige Konzentration der Substanzen wurde durch Verdünnung der Lösungen mit 0,5 % Tylose eingestellt.
Syngeneische Tiere wurden während eines Zeitraumes von drei Tagen vor der Tumorinjektion und 2 Tagen nach der Tumorinjektion täglich mit 2 mg bis 200 mg/kg der Substanzen in 0,2 ml 0,5 % Tylose peroral behandelt. Kontrolltiere erhielten 0,2 ml 0,5 % Tylose. Am vierten Tag wurde den vorbehandelten Mäusen und Kontrolltieren eine Suspension von 5 x 10^4 B-16a Tumorzellen über die Schwanzvene injiziert.

Where [4] appears, read: 0,5 mg/kg peroral daily for 27 days after s.c. tumour cell injection.
The mark [5] stands for this setting: 5 mg/kg peroral daily for 27 days after s.c. tumour cell injection.
[6] abbreviates: 25 mg/kg peroral daily for 27 days after s.c. tumour cell injection.
[7] abbreviates: 50 mg/kg peroral daily for 27 days after s.c. tumour cell injection.
Setting [8] is: 75 mg/kg peroral daily for 27 days after s.c. tumour cell injection.
The mark [9] stands for this setting: 100 mg/kg peroral daily for 27 days after s.c. tumour cell injection.

For `CC1=NN(CCOc2ccc3ccccc3c2)C(=O)C1C` (stereo not shown) [3,4-Dimethyl-Derivat], in assay [1], the “antithrombotischer Effekt” value was “kein antithrombotischer Effekt feststellbar”.
With `O=C1CC(Cc2ccccc2)=NN1CCOc1ccc2ccccc2c1` [3-Benzyl-], in assay [1], the “antithrombotischer Effekt” value is given as “kein antithrombotischer Effekt feststellbar”.
Take `CC(C)C1=NN(CCOc2ccc3ccccc3c2)C(=O)C1` [3-Isopropyl-]: the “antithrombotischer Effekt” value in assay [1] is “kein antithrombotischer Effekt feststellbar”.
With `CCCC1=NN(CCOc2ccc3ccccc3c2)C(=O)C1` [3-n-Propyl-], in assay [1], the “antithrombotischer Effekt” value is “kein antithrombotischer Effekt feststellbar”.
As to `CCC1=NN(CCOc2ccc3ccccc3c2)C(=O)C1` [Ethyl in der 3-Position des Nafazatroms], the “Wirkung bei der Thromboseprophylaxe” value in assay [1] (fraction of the effect of Nafazatrom) is on record as 1/30.
For `CC1=NN(CCOc2ccc3ccccc3c2)C(=O)C1C` (stereo not shown) [Verbindung A], the Metastasenpunkte is listed as 5,3±1,5 with B-16a Tumorzellen [2] (0,05 mg/kg peroral); 4,1±1,4 in the assay with B-16a Tumorzellen [2] (0,5 mg/kg peroral); 2,6±1,1 with B-16a Tumorzellen [2] (0,005 mg/kg peroral); 2,3±1,2 with B-16a Tumorzellen [2] (5 mg/kg peroral); 2,9±2,6 in the assay on B-16a-Zellen (setting [4]); 2,7±2,0 with B-16a-Zellen (setting [5]). Also, the Metastasenpunkte is 2,2±1,6 with B-16a-Zellen (setting [6]), 2,1±1,5 in the assay on B-16a-Zellen (setting [7]), 1,3±1,4 in the assay with B-16a-Zellen (setting [8]) and 2,8±1,7 in the assay on B-16a-Zellen (setting [9]). In addition, the Metastasenindex is reported as 0,76 in the assay on B-16a Tumorzellen [2] (0,05 mg/kg peroral); 0,59 in the assay on B-16a Tumorzellen [2] (0,5 mg/kg peroral); 0,37 with B-16a Tumorzellen [2] (0,005 mg/kg peroral); 0,33 with B-16a Tumorzellen [2] (5 mg/kg peroral); 0,66 in the assay with B-16a-Zellen (setting [4]); 0,61 in the assay on B-16a-Zellen (setting [5]). The Metastasenindex was 0,50 in the assay with B-16a-Zellen (setting [6]), 0,48 with B-16a-Zellen (setting [7]), 0,30 with B-16a-Zellen (setting [8]) and 0,64 in the assay on B-16a-Zellen (setting [9]).
Consider `CC1=NN(CCOc2ccc3ccccc3c2)C(=O)C1(C)C` [Verbindung B], for which the Metastasenpunkte is on record as 4,2±2,6 in the assay with B-16a Tumorzellen [2] (0,05 mg/kg peroral), 2,6±0,8 in the assay on B-16a Tumorzellen [2] (0,5 mg/kg peroral), 4,9±2,2 in the assay with B-16a Tumorzellen [2] (0,005 mg/kg peroral) and 4,5±2,3 with B-16a Tumorzellen [2] (5 mg/kg peroral). The Metastasenindex in the assay with B-16a Tumorzellen [2] (0,05 mg/kg peroral) is 0,60; with B-16a Tumorzellen [2] (0,5 mg/kg peroral), 0,37; in the assay with B-16a Tumorzellen [2] (0,005 mg/kg peroral), 0.70; in the assay on B-16a Tumorzellen [2] (5 mg/kg peroral), 0,64.
For the molecule `CC1=NN(Cc2ccoc2)C(=O)C1` [Verbindung C], the Metastasenpunkte is 4,3±1,7 in the assay with B-16a Tumorzellen [3] (0,05 mg/kg peroral daily), 4,7±2,1 in the assay on B-16a Tumorzellen [3] (0,5 mg/kg peroral daily), 5,2±2,0 in the assay on B-16a Tumorzellen [3] (0,005 mg/kg peroral daily) and 5,3±2,0 with B-16a Tumorzellen [3] (5 mg/kg peroral daily). Further, the Metastasenindex in the assay on B-16a Tumorzellen [3] (0,05 mg/kg peroral daily) is reported as 0,72; in the assay on B-16a Tumorzellen [3] (0,5 mg/kg peroral daily), 0,78; in the assay with B-16a Tumorzellen [3] (0,005 mg/kg peroral daily), 0,87; with B-16a Tumorzellen [3] (5 mg/kg peroral daily), 0,88.
As for `CC1=NN(C(C)c2ccsc2)C(=O)C1` (stereo not shown) [Verbindung D], the Metastasenpunkte in the assay on B-16a Tumorzellen [3] (0,05 mg/kg peroral daily) is listed as 3,8±1,8; in the assay on B-16a Tumorzellen [3] (0,5 mg/kg peroral daily) it was 3,6±1,7; with B-16a Tumorzellen [3] (0,005 mg/kg peroral daily) it was 4,7±1,9; with B-16a Tumorzellen [3] (5 mg/kg peroral daily) it was 3,8±1,4. Besides, the Metastasenindex in the assay with B-16a Tumorzellen [3] (0,05 mg/kg peroral daily) is recorded as 0,63; in the assay with B-16a Tumorzellen [3] (0,5 mg/kg peroral daily), 0,60; in the assay on B-16a Tumorzellen [3] (0,005 mg/kg peroral daily), 0,78; with B-16a Tumorzellen [3] (5 mg/kg peroral daily) it was 0,63.
Consider `COc1cc(N2N=C(N)CC2=O)ccc1C` [Verbindung E], for which the values for the Metastasenpunkte in the assay on B-16a Tumorzellen [3] (2 mg/kg peroral daily), in the assay with B-16a Tumorzellen [3] (20 mg/kg peroral daily) and in the assay with B-16a Tumorzellen [3] (200mg/kg peroral daily) were 2,7±1,7, 2,5±1,0 and 2,7±1,5, respectively. For the same molecule, the Metastasenindex was 0,66 in the assay with B-16a Tumorzellen [3] (2 mg/kg peroral daily), 0,61 in the assay on B-16a Tumorzellen [3] (20 mg/kg peroral daily) and 0,66 in the assay with B-16a Tumorzellen [3] (200mg/kg peroral daily).
`CCCCCCCCCCCCCCCCCC1=NN(c2ccc(Oc3ccccc3)c(S(=O)(=O)O)c2)C(=O)C1` [Verbindung F]: the Metastasenpunkte in the assay with B-16a Tumorzellen [3] (2 mg/kg peroral daily) is 2,8±1,0; with B-16a Tumorzellen [3] (20 mg/kg peroral daily), 3,0±1,1; in the assay with B-16a Tumorzellen [3] (200mg/kg peroral daily) it was 2,6±1,0. Besides, the Metastasenindex was 0,68 in the assay on B-16a Tumorzellen [3] (2 mg/kg peroral daily), 0,73 in the assay with B-16a Tumorzellen [3] (20 mg/kg peroral daily) and 0,63 with B-16a Tumorzellen [3] (200mg/kg peroral daily).
